Laboratory results from patent US6833456B2, “Indolyl-urea derivatives of thienopyridines useful as antiangiogenic agents, and methods for their use” (Agouron Pharmaceuticals, Inc., priority 2002, dated 2004).
Several values for one entry are separate records, joined by “and”; a condition that tells them apart may be missing. Identical values can stand only once.

Columns and labels:
[1] = target: T1, unphosphorylated VEGF-R2Δ50 (FLVK) (Homo sapiens, UniProt P35968, DEL940-989/E990V); experiment: VEGF-R2 coupled spectrophotometric assay, unphosphorylated construct (FLVK); type: biochemical; conditions: for inhibition at 0.05 µM: percent inhibition at 50 nM
T1 construct: VEGF-R2Δ50 contains residues 806-939 and 990-1171; made in house; host or cells: baculovirus/insect cell system
T1 sequence (P35968 with tags, fused parts or gaps DEL940-989/E990V limits assumed): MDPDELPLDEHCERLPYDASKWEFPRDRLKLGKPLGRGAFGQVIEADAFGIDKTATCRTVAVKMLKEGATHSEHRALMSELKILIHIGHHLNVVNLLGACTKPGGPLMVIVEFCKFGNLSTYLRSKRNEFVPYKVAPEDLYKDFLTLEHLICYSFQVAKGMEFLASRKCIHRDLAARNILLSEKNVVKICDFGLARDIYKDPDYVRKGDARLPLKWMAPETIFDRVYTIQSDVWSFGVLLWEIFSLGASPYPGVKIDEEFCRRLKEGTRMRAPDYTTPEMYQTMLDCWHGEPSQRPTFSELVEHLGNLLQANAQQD
In short: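 Human VEGF-R2Δ50 cytosolic kinase (residues 806-939/990-1171, E990V), baculovirus-expressed, unphosphorylated form. PK/LDH-coupled NADH oxidation at 340 nm with 20 mM poly(E4Y1), 3 mM ATP, 60 mM MgCl2, 2 mM MnCl2, 200 mM HEPES pH 7.5, 5-40 nM enzyme; Ki fitted by Morrison equation.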

[2] = tested on: human umbilical vein endothelial cells (HUVEC); experiment: HUVEC+VEGF proliferation assay; type: cell-based; conditions: VEGF 6 ng/mL, MTT
In short: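 HUVEC (passage 3-4), serum-starved 24 h in F12K + 1% FBS, were pre-treated with compound for 1 h (0.1% DMSO final). They were then stimulated with VEGF at 6 ng/mL final. Proliferation was measured after 72 h by MTT dye reduction (4 h), with absorbance read at 595 nm.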

HUVEC = experiment: bFGF HUVEC proliferation; type: cell-based, human; conditions: bFGF stimulated HUVEC
Mouse PK assay = type: in vivo, B6 female mice; conditions: for AUC / Cmax: female, B6, mouse, plasma; for AUC / Cmax / Mouse Cmin, po: po; for Cmax: read-out: Mouse Cmax, po ng-h/mL
In short: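 Plasma levels were measured by HPLC with UV detection after acetonitrile precipitation, using extracted standards, in blood taken up to 4 h (0.5, 1, 2, 4 h) post-dose. Dosing: 50 mg/kg orally or intraperitoneally to two groups of four female B6 mice, vehicle PEG 400:acidified H2O 30:70 suspension.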

CNC(=O)n1c(C)cc2cc(Nc3ccnc4cc(C(=O)N5CCC[C@@H]5CO)sc34)ccc21 [Example 1a, 5-[2-(2R-Hydroxymethyl-pyrrolidine-1-carbonyl)-thieno[3,2-b]pyridin-7-ylamino]-2-methyl-indole-1-carboxylic acid methylamide]
Ki [1]: 0.69 nM
inhibition at 0.05 µM [1]: 90%
IC50 ([2]; Homo sapiens, HUVEC, 72 h): 0.91 nM
IC50 (HUVEC; Homo sapiens, HUVEC): 59 nM
AUC (Mouse PK assay; 50 mg/kg): 1020 ng·h/mL
Cmax (Mouse PK assay; 50 mg/kg, p.o., 50 mg/kg): 526 ng/mL
Mouse Cmin, po (Mouse PK assay): 3 ng/mL

CNC(=O)n1c(C)cc2cc(Nc3ccnc4cc(C(=O)N5CCC[C@@H]5COC)sc34)ccc21 [Example 1b, 5-[2-(2R-Methoxymethyl-pyrrolidine-1-carbonyl)-thieno[3,2-b]pyridin-7-ylamino]-2-methyl-indole-1-carboxylic acid methylamide]
Ki [1]: 0.96 nM
inhibition at 0.05 µM [1]: 88%
IC50 ([2]; Homo sapiens, HUVEC, 72 h): 0.69 nM
IC50 (HUVEC; Homo sapiens, HUVEC): 80 nM
AUC (Mouse PK assay; 50 mg/kg): 78 ng·h/mL
Cmax (Mouse PK assay; 50 mg/kg, p.o., 50 mg/kg): 24 ng/mL
Mouse Cmin, po (Mouse PK assay): 5 ng/mL

Cc1cc2cc(Nc3ccnc4cc(C(=O)N5CCC[C@@H]5CO)sc34)ccc2n1C(=O)NC1CC1 [Example 1c, 5-[2-(2R-Hydroxymethyl-pyrrolidine-1-carbonyl)-thieno[3,2-b]pyridin-7-ylamino]-2-methyl-indole-1-carboxylic acid cyclopropylamide]
Ki [1]: 0.67 nM
inhibition at 0.05 µM [1]: 98%
IC50 ([2]; Homo sapiens, HUVEC, 72 h): 0.7 nM
IC50 (HUVEC; Homo sapiens, HUVEC): 158 nM
AUC (Mouse PK assay; 50 mg/kg): 616 ng·h/mL
Cmax (Mouse PK assay; 50 mg/kg, p.o., 50 mg/kg): 317 ng/mL
Mouse Cmin, po (Mouse PK assay): 7 ng/mL

COC[C@H]1CCCN1C(=O)c1cc2nccc(Nc3ccc4c(c3)cc(C)n4C(=O)NC3CC3)c2s1 [Example 1d, 5-[2-(2R-Methoxymethyl-pyrrolidine-1-carbonyl)-thieno[3,2-b]pyridin-7-ylamino]-2-methyl-indole-1-carboxylic acid cyclopropylamide]
Ki [1]: 1.1 nM
inhibition at 0.05 µM [1]: 97%
IC50 ([2]; 72 hours): 0.56 nM
IC50 (HUVEC; Homo sapiens, HUVEC): 24 nM
IC50 (HUVEC): 23.4 nM
AUC (Mouse PK assay; 50 mg/kg): 5070 ng·h/mL
Cmax (Mouse PK assay; 50 mg/kg, p.o., 50 mg/kg): 2820 ng/mL
Mouse Cmin, po (Mouse PK assay): 32 ng/mL

CNC(=O)n1c(C)cc2cc(Nc3ccnc4cc(C(=O)N5CC[C@@H](OC)C5)sc34)ccc21 [Example 1l, 5-[2-(3R-Methoxy-pyrrolidine-1-carbonyl)-thieno[3,2-b]pyridin-7-ylamino]-2-methyl-indole-1-carboxylic acid methylamide]
inhibition at 0.05 µM [1]: 94%
IC50 ([2]; Homo sapiens, HUVEC, 72 h): 0.3 nM
IC50 (HUVEC; Homo sapiens, HUVEC): 6.1 nM
AUC (Mouse PK assay; 50 mg/kg): 719 ng·h/mL
Cmax (Mouse PK assay; 50 mg/kg, p.o., 50 mg/kg): 504 ng/mL
Mouse Cmin, po (Mouse PK assay): 5 ng/mL

CNC(=O)n1c(C)cc2cc(Nc3ccnc4cc(C(=O)N5CC[C@@H](O)C5)sc34)ccc21 [Example 1n, 5-[2-(3R-Hydroxy-pyrrolidine-1-carbonyl)-thieno[3,2-b]pyridin-7-ylamino]-2-methyl-indole-1-carboxylic acid methylamide]
inhibition at 0.05 µM [1]: 94%
IC50 ([2]; Homo sapiens, HUVEC, 72 h): 0.64 nM
IC50 (HUVEC; Homo sapiens, HUVEC): 30.2 nM
IC50 (HUVEC): 19.4 nM
AUC (Mouse PK assay; 50 mg/kg): 12 ng·h/mL
Cmax (Mouse PK assay; 50 mg/kg, p.o., 50 mg/kg): 8 ng/mL
Mouse Cmin, po (Mouse PK assay): 0 ng/mL

C#CCNC(=O)n1c(C)cc2cc(Nc3ccnc4cc(C(=O)N5CC[C@@H](O)C5)sc34)ccc21 [Example 1o, 5-[2-(3R-Hydroxy-pyrrolidine-1-carbonyl)-thieno[3,2-b]pyridin-7-ylamino]-2-methyl-indole-1-carboxylic acid prop-2-ynylamide]
Ki [1]: 0.37 nM
inhibition at 0.05 µM [1]: 96%
IC50 ([2]; Homo sapiens, HUVEC, 72 h): 0.34 nM
IC50 (HUVEC; Homo sapiens, HUVEC): 49.6 nM
IC50 (HUVEC): 52 nM
AUC (Mouse PK assay; 50 mg/kg): 219 ng·h/mL
Cmax (Mouse PK assay; 50 mg/kg, p.o., 50 mg/kg): 100 ng/mL
Mouse Cmin, po (Mouse PK assay): 6 ng/mL

COC[C@@H]1CCCN1C(=O)c1cc2nccc(Nc3ccc4c(c3)cc(C)n4C(=O)NC3CC3)c2s1 [Example 2c, 5-(2-[(S)-2-(methoxymethyl)pyrrolidine-1-carbonyl]thieno[3,2-b]pyridin-7-ylamino)-2-methylindole-1-carboxylic acid cyclopropylamide]
Ki [1]: 0.56 nM
inhibition at 0.05 µM [1]: 97%
IC50 ([2]; Homo sapiens, HUVEC, 72 h): 0.44 nM
IC50 (HUVEC; Homo sapiens, HUVEC): 41 nM
IC50 (HUVEC): 27 nM and 33 nM and 24 nM and 40 nM
AUC (Mouse PK assay; 50 mg/kg): 6700 ng·h/mL
Cmax (Mouse PK assay; 50 mg/kg, p.o., 50 mg/kg): 3700 ng/mL
Mouse Cmin, po (Mouse PK assay): 35 ng/mL

Cc1cc2cc(Nc3ccnc4cc(-c5nccn5C)sc34)ccc2n1C(=O)NC1CC1 [Example 2d, 5-(2-[1-methyl-1H-imidazol-2-yl]thieno[3,2-b]pyridin-7-ylamino)-2-methylindole-1-carboxylic acid cyclopropylamide]
Ki [1]: 0.32 nM
inhibition at 0.05 µM [1]: 98%
IC50 ([2]; Homo sapiens, HUVEC, 72 h): 0.15 nM
IC50 (HUVEC; Homo sapiens, HUVEC): 34 nM
AUC (Mouse PK assay; 50 mg/kg): 457 ng·h/mL
Cmax (Mouse PK assay; 50 mg/kg, p.o., 50 mg/kg): 411 ng/mL
Mouse Cmin, po (Mouse PK assay): 0 ng/mL

Cc1cc2cc(Nc3ccnc4cc(C(=O)N5CCC[C@H]5CO)sc34)ccc2n1C(=O)NC1CC1 [Example 2e, 5-(2-[(S)-2-(hydroxymethyl)pyrrolidine-1-carbonyl]thieno[3,2-b]pyridin-7-ylamino)-2-methylindole-1-carboxylic acid cyclopropylamide]
Ki [1]: 0.16 nM
inhibition at 0.05 µM [1]: 95%
IC50 ([2]; Homo sapiens, HUVEC, 72 h): 0.5 nM
IC50 (HUVEC; Homo sapiens, HUVEC): 27.8 nM
IC50 (HUVEC): 31.6 nM
AUC (Mouse PK assay; 50 mg/kg): 43 ng·h/mL
Cmax (Mouse PK assay; 50 mg/kg, p.o., 50 mg/kg): 28 ng/mL
Mouse Cmin, po (Mouse PK assay): 0 ng/mL

CCOC(=O)c1csc(-c2cc3nccc(Nc4ccc5c(c4)cc(C)n5C(=O)NC)c3s2)n1 [Example 3c, 2-[7-(2-Methyl-1-methylcarbamoyl-1H-indol-5-ylamino)-thieno[3,2-b]pyridin-2-yl]-thiazole-4-carboxylic acid ethyl ester]
Ki [1]: 0.79 nM
inhibition at 0.05 µM [1]: 81%
IC50 ([2]; Homo sapiens, HUVEC, 72 h): 2.33 nM
IC50 (HUVEC; Homo sapiens, HUVEC): 184 nM
IC50 (HUVEC): 262 nM
Mouse Cmax, po ng/mL (Mouse PK assay; p.o., 50 mg/kg): 0 ng/mL
Mouse Cmin, po (Mouse PK assay): 0 ng/mL

CNC(=O)n1c(C)cc2cc(Nc3cccc4cc(C(=O)N5C[C@H](OC)C[C@H]5CO)sc34)ccc21 [Example 3f, 5-[2-((2S,4R)-2-Hydroxymethyl-4-methoxy-pyrrolidine-1-carbonyl)-benzo[b]thiophen-7-ylamino]-2-methyl-indole-1-carboxylic acid methylamide]
Ki [1]: 10.5 nM
inhibition at 0.05 µM [1]: 57%
IC50 ([2]; Homo sapiens, HUVEC, 72 h): 3.99 nM
IC50 (HUVEC; Homo sapiens, HUVEC): 2050 nM
AUC (Mouse PK assay; 50 mg/kg): 44 ng·h/mL
Cmax (Mouse PK assay; 50 mg/kg, p.o., 50 mg/kg): 24 ng/mL
Mouse Cmin, po (Mouse PK assay): 2 ng/mL

CO[C@@H]1C[C@@H](CO)N(C(=O)c2cc3cccc(Nc4ccc5c(c4)cc(C)n5C(=O)NC4CC4)c3s2)C1 [Example 3g, 5-[2-((2S,4R)-2-Hydroxymethyl-4-methoxy-pyrrolidine-1-carbonyl)-benzo[b]thiophen-7-ylamino]-2-methyl-indole-1-carboxylic acid cyclopropylamide]
Ki [1]: 1.12 nM
inhibition at 0.05 µM [1]: 95%
IC50 ([2]; Homo sapiens, HUVEC, 72 h): 0.44 nM
IC50 (HUVEC; Homo sapiens, HUVEC): 656 nM
AUC (Mouse PK assay; 50 mg/kg): 46 ng·h/mL
Cmax (Mouse PK assay; 50 mg/kg, p.o., 50 mg/kg): 19 ng/mL
Mouse Cmin, po (Mouse PK assay): 2 ng/mL

CNC(=O)n1c(C)cc2cc(Oc3ccnc4cc(C(=O)N5C[C@H](OC)C[C@H]5CO)sc34)ccc21 [Example 3o, 5-[2-(2-Hydroxymethyl-4-methoxy-pyrrolidine-1-carbonyl)-thieno[3,2-b]pyridin-7-yloxy]-2-methyl-indole-1-carboxylic acid methylamide]
Ki [1]: 1.35 nM
inhibition at 0.05 µM [1]: 93%
IC50 ([2]; Homo sapiens, HUVEC, 72 h): 0.24 nM
IC50 (HUVEC; Homo sapiens, HUVEC): 246 nM
AUC (Mouse PK assay; 50 mg/kg): 2880 ng·h/mL
Cmax (Mouse PK assay; 50 mg/kg, p.o., 50 mg/kg): 2820 ng/mL
Mouse Cmin, po (Mouse PK assay): 20 ng/mL

CNC(=O)n1c(C)cc2cc(Oc3ccnc4cc(C(=O)N5CCC[C@H]5COC)sc34)ccc21 [Example 4a, 5-(2-[(S)-2-(methoxymethyl)pyrrolidine-1-carbonyl]thieno[3,2-b]pyridin-7-yloxy)-2-methylindole-1-carboxylic acid methylamide]
Ki [1]: 1.1 nM
inhibition at 0.05 µM [1]: 96%
IC50 ([2]; Homo sapiens, HUVEC, 72 h): 0.2 nM
IC50 (HUVEC; Homo sapiens, HUVEC): 33 nM
IC50 (HUVEC): 34 nM
AUC (Mouse PK assay; 50 mg/kg): 703 ng·h/mL
Cmax (Mouse PK assay; 50 mg/kg, p.o., 50 mg/kg): 575 ng/mL
Mouse Cmin, po (Mouse PK assay): 3 ng/mL

CNC(=O)n1c(C)cc2cc(Oc3ccnc4cc(C(=O)N5CCC[C@@H]5COC)sc34)ccc21 [Example 4e, 5-[2-(2R-Methoxymethyl-pyrrolidine-1-carbonyl)-thieno[3,2-b]pyridin-7-yloxy]-2-methyl-indole-1-carboxylic acid methylamide]
Ki [1]: 0.14 nM
inhibition at 0.05 µM [1]: 96%
IC50 ([2]; Homo sapiens, HUVEC, 72 h): 0.6 nM
IC50 (HUVEC; Homo sapiens, HUVEC): 14 nM
AUC (Mouse PK assay; 50 mg/kg): 5540 ng·h/mL
Cmax (Mouse PK assay; 50 mg/kg, p.o., 50 mg/kg): 3790 ng/mL
Mouse Cmin, po (Mouse PK assay): 23 ng/mL

CNC(=O)n1c(C)cc2cc(Oc3ccnc4cc(C(=O)N5CC[C@H](O)C5)sc34)ccc21 [Example 9g, 5-[2-(3S-Hydroxy-pyrrolidine-1-carbonyl)-thieno[3,2-b]pyridin-7-yloxy]-2-methyl-indole-1-carboxylic acid methylamide]
Ki [1]: 0.243 nM
inhibition at 0.05 µM [1]: 98%
IC50 (HUVEC; Homo sapiens, HUVEC): 45 nM
IC50 (HUVEC): 40 nM
AUC (Mouse PK assay; 50 mg/kg): 9530 ng·h/mL
Cmax (Mouse PK assay; 50 mg/kg, p.o., 50 mg/kg): 4540 ng/mL
